# Calls of active or inactive are those of the source. The calls are words filed in the database; no cut-off is given here. Where a SMILES comes first, the peptide text is derived from it. The star is where a group is joined. Decanoyl = CCCCCCCCCC(=O)*; CH2Cl = ClC*
# Target: Furin (Homo sapiens) (UniProt P09958)
# Test: Inhibition of furin in human HEK293FT cells assessed as HA5 maturation at 25 uM after 48 hrs by Western blotting analysis
# Format: cell-based
# Furin (Homo sapiens), sequence (P09958 whole entry): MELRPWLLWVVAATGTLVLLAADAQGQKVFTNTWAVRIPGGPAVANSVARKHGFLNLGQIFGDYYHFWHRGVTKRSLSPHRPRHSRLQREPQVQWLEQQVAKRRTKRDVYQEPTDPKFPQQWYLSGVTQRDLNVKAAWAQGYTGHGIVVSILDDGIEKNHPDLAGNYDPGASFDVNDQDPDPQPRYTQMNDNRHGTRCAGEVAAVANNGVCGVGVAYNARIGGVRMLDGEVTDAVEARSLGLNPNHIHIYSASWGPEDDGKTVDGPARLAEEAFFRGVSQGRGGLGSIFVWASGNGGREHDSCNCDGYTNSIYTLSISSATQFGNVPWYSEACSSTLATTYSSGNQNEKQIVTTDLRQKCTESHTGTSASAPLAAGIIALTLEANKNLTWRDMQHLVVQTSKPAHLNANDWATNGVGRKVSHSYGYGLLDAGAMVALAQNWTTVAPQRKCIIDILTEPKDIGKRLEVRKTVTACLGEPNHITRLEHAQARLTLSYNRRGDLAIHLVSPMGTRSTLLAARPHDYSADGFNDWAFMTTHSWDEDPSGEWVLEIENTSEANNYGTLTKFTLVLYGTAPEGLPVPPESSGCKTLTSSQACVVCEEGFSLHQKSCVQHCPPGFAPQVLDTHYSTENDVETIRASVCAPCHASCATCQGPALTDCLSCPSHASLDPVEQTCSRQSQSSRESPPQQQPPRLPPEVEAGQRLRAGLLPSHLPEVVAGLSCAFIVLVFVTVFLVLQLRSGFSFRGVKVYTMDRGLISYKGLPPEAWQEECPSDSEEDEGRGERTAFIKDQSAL
smiles,measurement,value
CCCCCCCCCC(=O)N[C@@H](CCCNC(=N)N)C(=O)N[C@H](C(=O)N[C@@H](CCCCN)C(=O)N[C@@H](CCCNC(=N)N)C(=O)CCl)C(C)C (Decanoyl-RVKR-CH2Cl),inhibition,Active
